# Measured values as given in patent US9878007B2, “Syndecan peptides and polypeptides as inhibitors of vascular endothelial growth factor receptor-2 (VEGFR2) and very late antigen-4 (VLA-4)” (Wisconsin Alumni Research Foundation, priority 2015, dated 2018).
# Test system: P3x63Ag8 mouse myeloma cells
# Assay: Adhesion of P3x63Ag8 myeloma cells to FN
# Format: cell-based
# Settings: 30 uM peptide, 2.5 hr
# Method: FIG. 7A-B. S1ED^214-236, specific for VEGFR2 coupling to VLA-4, blocks myeloma cell invasion but not adhesion. (FIG. 7A) P3x63Ag8 mouse myeloma cells are plating on the VLA-4 ligand FN in the presence or absence of 30 uM S1ED^210-233 (SEQ ID No: 4) or S1ED^214-236 (SEQ ID No: 7) for 2.5 hr. (FIG. 7B) P3x63Ag8 myeloma cells are plated on FN-coated filters in the presence of HPSE inhibitor OGT2115, VLA-4 blocking antibody P1H4, VEGFR2 inhibitor Vandetanib or S1ED^210-233 or S1ED^214-236 and allowed to migrate through the filter for 16 hr. Small black dots are the pores in the filter.
# Nitrocellulose-coated slides were coated for 2 hr at 37° C. with 40 μg/ml FN (kindly provided by Dr. Donna Peters, University of Wisconsin-Madison) or 5 μg/ml recombinant VCAM-1/Fc chimera (R&D Systems) in calcium and magnesium-free PBS (CMF-PBS; 135 mM NaCl, 2.7 mM KCl, 10.2 mM Na2HPO4-7H20 and 1.75 mM KH2PO4, pH7.4). Slides were blocked for 1 hr at 37° C. with RPMI 1640 containing 1% heat-denatured BSA (plating medium). Cells in plating medium were allowed to attach and spread for 2.5 hr at 37° C. Slides were fixed in 4% EM grade paraformaldehyde (Electron Microscopy Sciences) in CMF-PBS and labeled for 30 min in 0.13 μM rhodamine phalloidin (Invitrogen) in CMF-PBS. Coverslips were mounted in non-fluorescing mounting medium (Immumount; Thermo Shandon) and allowed to dry. […]
substance,measurement,value
"S1ED^210-233: syndecan-1 ectodomain peptide, residues 210-233 (SEQ ID NO: 4) (DFTFETSGENTAVVAVEPDRRNQS)",adhesion of P3X cells to FN,blocks the adhesion of the myeloma cells to FN
